Reference: patent publication US20210032257A1, “(E)-1-(4-(DIMETHYLAMINO)BUT-2-ENOYL)PYRROLIDIN-3-YL 4-((3-ISOPROPYL-5-METHYLPYRAZOLO[1,5-A]PYRIMIDIN-7-YL)AMINO)PIPERIDINE-1-CARBOXYLATE FOR INHIBITING CDK7” (Eli Lilly and Company, priority 2017, published 2021)

Tests used:
Assay in all cases: Biomarker study proliferation (CellTiter-Glo)
Format in all cases: cell-based
SJRH30 = test system: SJRH30
In short: (§1)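 Ten concentrations, threefold apart, starting from a 10 mM DMSO working stock, are applied to cells seeded at 5000/well. Exposure lasts 7 days at 37 °C, 5% CO2, and viability is read by luminescence.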

HUH28 = test system: HUH28
In short: as §1

NCIH1436 = test system: NCIH1436
In short: as §1

SNU475 = test system: SNU475
In short: as §1

COLO320 = test system: COLO320
In short: as §1

HCC4006 = test system: HCC4006
In short: as §1

22RV1 = test system: 22RV1
In short: as §1

HCC2218 = test system: HCC2218
In short: as §1

RKO = test system: RKO
In short: as §1

HEC1A = test system: HEC1A
In short: as §1

CAOV3 = test system: CAOV3
In short: as §1

SNU308 = test system: SNU308
In short: as §1

NCIH2081 = test system: NCIH2081
In short: as §1

NCIH358 = test system: NCIH358
In short: as §1

OZ = test system: OZ
In short: as §1

CT26 = test system: CT26
In short: as §1

DMS273 = test system: DMS273
In short: as §1

SW780 = test system: SW780
In short: as §1

MKN1 = test system: MKN1
In short: as §1

[1] = 168 h, read-out: Anti-proliferation effect IC50

SMILES: Cc1cc(NC2CCN(C(=O)O[C@H]3CCN(C(=O)/C=C/CN(C)C)C3)CC2)n2ncc(C(C)C)c2n1 [Example 1, [(3S)-1-[(E)-4-(dimethylamino)but-2-enoyl]pyrrolidin-3-yl] 4-[(3-isopropyl-5-methyl-pyrazolo[1,5-a]pyrimidin-7-yl)amino]piperidine-1-carboxylate]
- IC50 (SJRH30; Homo sapiens, SJRH30, 168 h, read-out: Anti-proliferation effect IC50): 0.039 µM
- Anti-proliferation effect % Inh. (SJRH30; SJRH30, SOFT TISSUE, 7 days): 62%
- Anti-proliferation effect Outcome (SJRH30; SJRH30, SOFT TISSUE, 7 days): Cytostatic (cytostatic (IC50<1 μM and % inhibition <70%))
- IC50 (HUH28; [1]): 2.9 µM
- Anti-proliferation effect % Inh. (HUH28; HUH28, BILIARY, 7 days): 32%
- Anti-proliferation effect Outcome (HUH28; HUH28, BILIARY, 7 days): Insensitive (insensitive (IC50≥1 μM))
- IC50 (NCIH1436; Homo sapiens, NCI-H1436, 168 h, read-out: Anti-proliferation effect IC50): 0.195 µM
- Anti-proliferation effect % Inh. (NCIH1436; NCIH1436, LUNG, 7 days): 56%
- Anti-proliferation effect Outcome (NCIH1436; NCIH1436, LUNG, 7 days): Cytostatic (cytostatic (IC50<1 μM and % inhibition <70%))
- IC50 (SNU475; Homo sapiens, SNU-475, 168 h, read-out: Anti-proliferation effect IC50): 3.92 µM
- Anti-proliferation effect % Inh. (SNU475; SNU475, LIVER, 7 days): 28%
- Anti-proliferation effect Outcome (SNU475; SNU475, LIVER, 7 days): Insensitive (insensitive (IC50≥1 μM))
- Anti-proliferation effect % Inh. (COLO320; COLO320, INTESTINE, 7 days): 73%
- Anti-proliferation effect Outcome (COLO320; COLO320, INTESTINE, 7 days): Cytotoxic (cytotoxic (IC50<1 μM and % inhibition ≥70%))
- IC50 (COLO320; Homo sapiens, COLO 320, 168 h, read-out: Anti-proliferation effect IC50): 0.189 µM
- Anti-proliferation effect % Inh. (HCC4006; HCC4006, LUNG, 7 days): 57%
- Anti-proliferation effect Outcome (HCC4006; HCC4006, LUNG, 7 days): Cytostatic (cytostatic (IC50<1 μM and % inhibition <70%))
- IC50 (HCC4006; Homo sapiens, HCC4006, 168 h, read-out: Anti-proliferation effect IC50): 0.028 µM
- Anti-proliferation effect % Inh. (22RV1; 22RV1, PROSTATE, 7 days): 77%
- Anti-proliferation effect Outcome (22RV1; 22RV1, PROSTATE, 7 days): Cytotoxic (cytotoxic (IC50<1 μM and % inhibition ≥70%))
- IC50 (22RV1; Homo sapiens, 22Rv1, 168 h, read-out: Anti-proliferation effect IC50): 0.028 µM
- Anti-proliferation effect % Inh. (HCC2218; HCC2218, BREAST, 7 days): 41%
- Anti-proliferation effect Outcome (HCC2218; HCC2218, BREAST, 7 days): Cytostatic (cytostatic (IC50<1 μM and % inhibition <70%))
- IC50 (HCC2218; Homo sapiens, HCC2218, 168 h, read-out: Anti-proliferation effect IC50): 0.56 µM
- IC50 (RKO; Homo sapiens, 168 h, read-out: Anti-proliferation effect IC50): 0.118 µM
- Anti-proliferation effect % Inh. (RKO; INTESTINE, 7 days): 61%
- Anti-proliferation effect Outcome (RKO; INTESTINE, 7 days): Cytostatic (cytostatic (IC50<1 μM and % inhibition <70%))
- Anti-proliferation effect % Inh. (HEC1A; HEC1A, ENDOMETRIUM, 7 days): 56%
- Anti-proliferation effect Outcome (HEC1A; HEC1A, ENDOMETRIUM, 7 days): Cytostatic (cytostatic (IC50<1 μM and % inhibition <70%))
- IC50 (HEC1A; Homo sapiens, HEC-1-A, 168 h, read-out: Anti-proliferation effect IC50): 0.162 µM
- Anti-proliferation effect % Inh. (CAOV3; CAOV3, OVARY, 7 days): 96%
- Anti-proliferation effect Outcome (CAOV3; CAOV3, OVARY, 7 days): Cytotoxic (cytotoxic (IC50<1 μM and % inhibition ≥70%))
- IC50 (CAOV3; Homo sapiens, Caov-3, 168 h, read-out: Anti-proliferation effect IC50): 0.019 µM
- IC50 (SNU308; [1]): 0.184 µM
- Anti-proliferation effect % Inh. (SNU308; SNU308, BILIARY, 7 days): 61%
- Anti-proliferation effect Outcome (SNU308; SNU308, BILIARY, 7 days): Cytostatic (cytostatic (IC50<1 μM and % inhibition <70%))
- IC50 (NCIH2081; Homo sapiens, NCI-H2081, 168 h, read-out: Anti-proliferation effect IC50): 0.442 µM
- Anti-proliferation effect % Inh. (NCIH2081; NCIH2081, LUNG, 7 days): 44%
- Anti-proliferation effect Outcome (NCIH2081; NCIH2081, LUNG, 7 days): Cytostatic (cytostatic (IC50<1 μM and % inhibition <70%))
- IC50 (NCIH358; Homo sapiens, NCI-H358, 168 h, read-out: Anti-proliferation effect IC50): 0.042 µM
- Anti-proliferation effect % Inh. (NCIH358; NCIH358, LUNG, 7 days): 93%
- Anti-proliferation effect Outcome (NCIH358; NCIH358, LUNG, 7 days): Cytotoxic (cytotoxic (IC50<1 μM and % inhibition ≥70%))
- IC50 (OZ; [1]): 0.05 µM
- Anti-proliferation effect % Inh. (OZ; OZ, LIVER, 7 days): 77%
- Anti-proliferation effect Outcome (OZ; OZ, LIVER, 7 days): Cytotoxic (cytotoxic (IC50<1 μM and % inhibition ≥70%))
- Anti-proliferation effect % Inh. (CT26; CT26, INTESTINE, 7 days): −47%
- Anti-proliferation effect Outcome (CT26; CT26, INTESTINE, 7 days): Insensitive (insensitive (IC50≥1 μM))
- IC50 (CT26; Mus musculus, CT26, 168 h, read-out: Anti-proliferation effect IC50): > 10 µM
- Anti-proliferation effect % Inh. (DMS273; DMS273, LUNG, 7 days): 80%
- Anti-proliferation effect Outcome (DMS273; DMS273, LUNG, 7 days): Cytotoxic (cytotoxic (IC50<1 μM and % inhibition ≥70%))
- IC50 (DMS273; Homo sapiens, DMS-273, 168 h, read-out: Anti-proliferation effect IC50): 0.019 µM
- IC50 (SW780; Homo sapiens, SW780, 168 h, read-out: Anti-proliferation effect IC50): 0.074 µM
- Anti-proliferation effect % Inh. (SW780; SW780, URINARY, 7 days): 68%
- Anti-proliferation effect Outcome (SW780; SW780, URINARY, 7 days): Cytostatic (cytostatic (IC50<1 μM and % inhibition <70%))
- IC50 (MKN1; Homo sapiens, MKN-1, 168 h, read-out: Anti-proliferation effect IC50): 0.023 µM
- Anti-proliferation effect % Inh. (MKN1; MKN1, STOMACH, 7 days): 80%
- Anti-proliferation effect Outcome (MKN1; MKN1, STOMACH, 7 days): Cytotoxic (cytotoxic (IC50<1 μM and % inhibition ≥70%))
